Where a SMILES comes first, the peptide text is derived from it. Bridges are numbered along the chain shown (N, C = ends). Where no end group is shown, it is not given here. [ ]: non-standard residue; d: D form. The star is where a group is joined. 5FAM = O=C1OC2(c3ccc(O)cc3Oc3cc(O)ccc32)c2ccc(C(=O)*)cc21; Bpa = N[C@@H](Cc1ccc(C(=O)c2ccccc2)cc1)C(=O)O
Key:
BRD3-BD2 [1] = target: T1, BRD3-BD2 (Homo sapiens, UniProt Q15059); experiment: Photocrosslinking of BRD3-BD2, SDS-PAGE/Coomassie densitometry; assay type: biochemical; settings: BRD3-BD2 20 µM, peptide 40 µM (two equivalents), 365 nm for 40 min, 0 °C; SDS-PAGE, Coomassie; mean of triplicate
T1 construct: BRD3-BD2 (306–421, Q15059); Avi tag (biotinylated in vivo; vector pQE80L-Navi); made in house; host or cells: Escherichia coli BL21(DE3)
T1 sequence (Q15059 306-421): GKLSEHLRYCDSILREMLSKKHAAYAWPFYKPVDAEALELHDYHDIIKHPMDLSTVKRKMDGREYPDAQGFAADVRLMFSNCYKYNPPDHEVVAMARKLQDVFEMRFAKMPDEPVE
Procedure: Fig. 3 Photocrosslinking of BRDs with pBpa-containing ligands. a Crosslinking between BRD3-BD2 (20 µM) and cyclic peptides (40 µM) after exposure to UV irradiation (365 nm) for variable amounts of time (0, 5, 10, 20, 40 min). Samples were separated on an SDS-PAGE gel and visualised by Coomassie staining. b Plot of percentage of cross-linked BRD3-BD2 calculated by densitometric analysis of protein bands from (a). Crosslinking efficiencies are represented as the mean of triplicate experiments ±1 standard deviation. c Crosslinking of BRD3-BD2/BRD2-BD2/BRD4-BD2/BRD3-BD1 (2 µM) by cyclic peptides (20 µM) after exposure to UV irradiation for 30 min. Samples were analysed and processed as described in (a, b). […]
(§1) S7. Direct fluorescence anisotropy assay […]
(§2) After 30 min, fluorescence anisotropy was measured with a CLARIOstar plate reader (BMG Labtech) using excitation at 482 nm and emissions at 530 nm at 25 °C. […] KD values were calculated using GraphPad Prism and a curve fitted using a one site - total fitting model. […]
(§3) Irradiated samples were analysed by SDS-PAGE on 4–20% Bis-Tris gels (mPAGE, Millipore).
(§4) Experiments with Bpa-P1 and Bpa-P2 were visualised by Quick Coomassie staining (Neo Biotech) with gels imaged on a Chemidoc MP Imaging System (Biorad) and quantified by Fiji. Experiments with Bpa-P1-FAM and Bpa-P2-FAM were visualised by in gel fluorescence imaging using a Typhoon FLA 9500 […]

BRD3-BD1 = settings: tight binding peptide to its target protein BRD3-BD1; cited from earlier work
BRD3-BD2 [2] = target: T1, BRD3-BD2; experiment: Direct fluorescence anisotropy binding assay; settings: direct fluorescence anisotropy with FAM-labelled peptide (100 nM final), 12-point 2-fold dilution of BRD3-BD2, 30 min rt, read at 25 °C; mean of at least three replicates ± SD
Procedure: Binding affinities for the two fluorescently tagged peptides were then determined using a direct fluorescence anisotropy assay (Fig. 2d and Supplementary Fig. S6). […] Having established that our peptides were able to bind to BRD3-BD2, we next assessed the crosslinking efficiency of the unlabelled variants. We were pleased to find that both peptides efficiently cross-linked to BRD3-BD2 upon exposure to UV light. After incubation with two equivalents of peptide and irradiation at 365 nm for only 5 min, we observed around 40% protein modification as analysed by sample separation on an SDS-PAGE gel and Coomassie staining. […]
as §1, §2, §3, §4
Irradiated samples with BRD3-BD2 were further analysed by LCMS. […]

[3] = target: T2, second bromodomain of BRD3 (BRD3-BD2), biotinylated (human (from the printed accession), UniProt Q15059 306-421, biotin (biotinylated; cultures induced with IPTG and 100 µM biotin)); experiment: SPR; peptide 3.2B on BRD3-BD2 cross-linked to Bpa-P1 or Bpa-P2; mean ± standard deviation of the mean; settings: both partners purified
T2 construct: BRD3, second bromodomain, residues 306-421 of Q15059; also called wild-type BRD3-BD2; source: E. coli BL21(DE3), purified (HisTrap, Superdex 75)
T2 sequence (Q15059 306-421): as above

## CC[C@H](C)[C@@H]1NC(=O)[C@H](Cc2ccccc2)NC(=O)[C@H](Cc2ccc(C(=O)c3ccccc3)cc2)NC(=O)[C@H]([C@@H](C)O)NC(=O)[C@H](CC(=O)O)NC(=O)CNC(=O)[C@H](CCCCN)NC(=O)[C@H](C)NC(=O)[C@H](CC(N)=O)NC(=O)[C@H](CC(C)C)NC(=O)[C@@H](Cc2ccc(O)cc2)NC(=O)CSC[C@@H](C(=O)NCC(N)=O)NC(=O)[C@H](Cc2ccc(O)cc2)NC(=O)[C@H]([C@@H](C)CC)NC1=O [Bpa-P2] ({CH2CO}-[dY]LNAKGDT[Bpa]FIIYCG-NH2; thioether N-14)
BRD3-BD2 [1]
  protein modification (cross-linked BRD3-BD2): 78%

## CC(C)C[C@@H]1NC(=O)[C@H](Cc2ccc(O)cc2)NC(=O)[C@H](Cc2ccc(C(=O)c3ccccc3)cc2)NC(=O)[C@H](CC(=O)O)NC(=O)[C@H](CC(=O)O)NC(=O)[C@H](CC(N)=O)NC(=O)[C@H](C(C)C)NC(=O)[C@H](CO)NC(=O)[C@H](CC(N)=O)NC(=O)[C@H](CC(C)C)NC(=O)[C@@H](Cc2ccc(O)cc2)NC(=O)CSC[C@@H](C(=O)NCC(N)=O)NC(=O)[C@H](Cc2ccc(O)cc2)NC(=O)[C@H](C)NC1=O [Bpa-P1] ({CH2CO}-[dY]LNSVNDD[Bpa]YLAYCG-NH2; thioether N-14)
BRD3-BD2 [1]
  protein modification (cross-linked BRD3-BD2): 96%

## cyclic-WKTIKGKTWRTKQC(S-) (sidechain bridge or staple) [3.1B, previously identified non-covalent cyclic peptide ligand of the first bromodomain of BRD3, BRD3-BD1]
BRD3-BD1
  Kd: 0.00049 µM

## CC[C@H](C)[C@@H]1NC(=O)[C@H](Cc2ccccc2)NC(=O)[C@H](Cc2ccc(C(=O)c3ccccc3)cc2)NC(=O)[C@H]([C@@H](C)O)NC(=O)[C@H](CC(=O)O)NC(=O)CNC(=O)[C@H](CCCCN)NC(=O)[C@H](C)NC(=O)[C@H](CC(N)=O)NC(=O)[C@H](CC(C)C)NC(=O)[C@@H](Cc2ccc(O)cc2)NC(=O)CSC[C@@H](C(=O)NCC(=O)N[C@@H](CCCCNC(=O)c2ccc3c(c2)C(=O)OC32c3ccc(O)cc3Oc3cc(O)ccc32)C(N)=O)NC(=O)[C@H](Cc2ccc(O)cc2)NC(=O)[C@H]([C@@H](C)CC)NC1=O [Bpa-P2-FAM] ({CH2CO}-[dY]LNAKGDT[Bpa]FIIYCGK(5FAM)-NH2; thioether N-14)
BRD3-BD2 [2]
  Kd: 14 ± 1 µM

## CC(C)C[C@@H]1NC(=O)[C@H](Cc2ccc(O)cc2)NC(=O)[C@H](Cc2ccc(C(=O)c3ccccc3)cc2)NC(=O)[C@H](CC(=O)O)NC(=O)[C@H](CC(=O)O)NC(=O)[C@H](CC(N)=O)NC(=O)[C@H](C(C)C)NC(=O)[C@H](CO)NC(=O)[C@H](CC(N)=O)NC(=O)[C@H](CC(C)C)NC(=O)[C@@H](Cc2ccc(O)cc2)NC(=O)CSC[C@@H](C(=O)NCC(=O)N[C@@H](CCCCNC(=O)c2ccc3c(c2)C(=O)OC32c3ccc(O)cc3Oc3cc(O)ccc32)C(N)=O)NC(=O)[C@H](Cc2ccc(O)cc2)NC(=O)[C@H](C)NC1=O [Bpa-P1-FAM] ({CH2CO}-[dY]LNSVNDD[Bpa]YLAYCGK(5FAM)-NH2; thioether N-14)
BRD3-BD2 [2]
  Kd: 29 ± 10 µM

B1: peptide 3.2B (peptide)
peptide: WSWLCKK(Ac)YNLIH
modifications: thioether (positions not given here); not fully specified (bridges); also: cyclic through C5 sulfur, other ring end not given here, bridge at 5, other end not in the chain
notes: Printed as cyclic-WSWLC(S-)KKYNLIH with the second K underlined (acetylated)
[3]
  binding result: binds
